In EP1756142B1, “PSEUDOPEPTIDES GROWTH HORMONE SECRETAGOGUES” (Mediolanum Farmaceutici S.p.A., priority 2004, dated 2008):

How the values were obtained:
[1] = tested on: GH release; assay: stimulation of GH release in vitro
[2] = tested on: human pituitary gland tissues; assay: binding affinity to human pituitary gland tissues; settings: compared with Ghrelin, hexarelin, MK 0677 and JMV 1843
[3] = tested on: GH release; assay: GH release in vivo after subcutaneous injection in neonatal rats

CC(C)(N)C(=O)N[C@H](Cc1c[nH]c2ccccc12)C(=O)N[C@@H](C=NOCC(N)=O)Cc1c[nH]c2ccccc12 [(Ia), Aib-D-Trp-D-Trpψ[CH=N∼O]Gly-NH2]
stimulating the GH release in vitro [1]: remarkably potent
binding affinity [2]: comparable to that of the natural ligand Ghrelin and superior to the binding affinity of the synthetic GH secretagogues
stimulating the GH release in vivo ([3]; in vivo): remarkably potent
amount of growth hormone released ([3]; neonatal rats, injected subcutaneously, compared with MK 0677 and hexarelin): exceeded the amount released when the standard GH secretagogues MK 0677 and hexarelin were administered
